Data as given in ChEMBL document CHEMBL2150867, “Comparative study of the affinity and metabolism of type I and type II binding quinoline carboxamide analogues by cytochrome P450 3A4” (J Med Chem, 2012).

What was measured:
Assay type in all cases: ADME; call rule not given here
[1] = target: T1, Cytochrome P450 3A4 (Homo sapiens, UniProt P08684); assay: Binding affinity to recombinant CYP3A4 NF-14 expressed in Escherichia coli at maximum spectrum 420 to 435 and a trough at 390 to 405 nm by UV-Visible spectroscopy; settings: recombinant enzyme, 0.405 µM
T1 sequence (P08684 whole entry): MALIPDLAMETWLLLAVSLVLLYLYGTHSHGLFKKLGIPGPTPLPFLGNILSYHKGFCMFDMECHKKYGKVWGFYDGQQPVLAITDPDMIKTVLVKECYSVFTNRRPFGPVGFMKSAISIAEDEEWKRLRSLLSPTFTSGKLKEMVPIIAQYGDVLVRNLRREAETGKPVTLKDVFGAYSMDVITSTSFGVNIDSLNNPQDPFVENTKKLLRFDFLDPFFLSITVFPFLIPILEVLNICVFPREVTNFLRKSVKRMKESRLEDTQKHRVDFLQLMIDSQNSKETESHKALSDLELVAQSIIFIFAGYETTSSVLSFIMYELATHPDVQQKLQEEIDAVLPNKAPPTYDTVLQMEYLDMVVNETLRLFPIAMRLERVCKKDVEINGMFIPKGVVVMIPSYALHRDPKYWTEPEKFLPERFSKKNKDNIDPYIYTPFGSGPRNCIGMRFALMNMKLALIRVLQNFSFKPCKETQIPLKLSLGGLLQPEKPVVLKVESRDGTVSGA

[2] = target: T1, Cytochrome P450 3A4; assay: Inhibition of recombinant CYP3A4 NF-14 expressed in Escherichia coli assessed as formation of 6-beta-hydroxytestosterone using testosterone as substrate after 5 mins by HPLC based UV method
[3] = target: T1, Cytochrome P450 3A4; assay: Intrinsic clearance assessed as CYP3A4-mediated clearance; settings: recombinant enzyme
[4] = target: T1, Cytochrome P450 3A4; assay: Binding affinity to recombinant CYP3A4 NF-14 expressed in Escherichia coli at maximum spectrum 385 to 390 nm and a trough at 415 to 420 nm by UV-Visible spectroscopy; settings: recombinant enzyme
[5] = target: CYP3A4 (Homo sapiens, UniProt P08684); assay: (§1) Metabolic stability of the compound assessed as CYP3A4 NF-14-mediated N-demethylation; settings: human, CYP3A4 NF-14
Sequence of CYP3A4 (P08684 whole entry): as above

[6] = target: T1, Cytochrome P450 3A4; assay: as §1
[7] = target: T1, Cytochrome P450 3A4; assay: Metabolic stability of the compound assessed as CYP3A4 NF-14-mediated aromatic hydroxylation at ring-B
[8] = target: T1, Cytochrome P450 3A4; assay: Metabolic stability of the compound assessed as CYP3A4 NF-14-mediated ratio of product formation from functional group oxidation at ring A to aromatic hydroxylation at ring B
[9] = target: T1, Cytochrome P450 3A4; assay: Metabolic stability of the compound assessed as CYP3A4 NF-14-mediated aromatic hydroxylation at ring-A
[10] = target: T1, Cytochrome P450 3A4; assay: Metabolic stability of the compound assessed as CYP3A4 NF-14-mediated ratio of product formation from functional group oxidation at ring A to aromatic hydroxylation at ring A

Activity [1]	Ki [2]	CL [3]	Activity [4]	Structure (SMILES)	other results
Active	0.8 µM	12.7 µM⁻¹ min⁻¹	–	CN(C)c1ccc(NC(=O)c2cc(-c3ccncc3)nc3ccccc23)cc1	Kcat [6]: 0.218 s⁻¹; Kcat [9]: 0 s⁻¹
–	32.9 µM	1 µM⁻¹ min⁻¹	Active	CN(C)c1ccc(NC(=O)c2cc(-c3ccccn3)nc3ccccc23)cc1	–
Active	20.1 µM	3.4 µM⁻¹ min⁻¹	–	COc1ccc(NC(=O)c2cc(-c3cnccn3)nc3ccccc23)cc1	–
Active	15.9 µM	2.8 µM⁻¹ min⁻¹	–	CN(C)c1ccc(NC(=O)c2cc(-c3cnccn3)nc3ccccc23)cc1	–
Active	6.9 µM	2.5 µM⁻¹ min⁻¹	–	O=C(Nc1ccccc1)c1cc(-c2cnccn2)nc2ccccc12	–
Active	2.7 µM	3.3 µM⁻¹ min⁻¹	–	Cc1ccc(NC(=O)c2cc(-c3cnccn3)nc3ccccc23)cc1	–
Active	8.4 µM	3.4 µM⁻¹ min⁻¹	–	CN(C)c1ccc(NC(=O)c2cc(-c3ccncn3)nc3ccccc23)cc1	–

More lines, now with the values behind:

Structure (SMILES)	Activity [1]	Ki [2]	CL [3]	Activity [4]	other results
Cc1ccc(NC(=O)c2cc(-c3ccncn3)nc3ccccc23)cc1	Active	3 µM	4 µM⁻¹ min⁻¹	–	–
CN(C)c1ccc(NC(=O)c2cc(-c3ccccc3)nc3ccccc23)cc1	–	14.4 µM	9.6 µM⁻¹ min⁻¹	Active	Km [5]: 2.9 µM; Kcat [6]: 0.465 s⁻¹; Kcat [7]: 0 s⁻¹
O=C(Nc1ccccc1)c1cc(-c2ccccc2)nc2ccccc12	–	4.1 µM	1.3 µM⁻¹ min⁻¹	Active	Ratio [8]: 1.3
Cc1ccc(NC(=O)c2cc(-c3ccccc3)nc3ccccc23)cc1	–	3.97 µM	3.4 µM⁻¹ min⁻¹	Active	Ratio [8]: 6
COc1ccc(NC(=O)c2cc(-c3ccncc3)nc3ccccc23)cc1	Active	0.54 µM	4.4 µM⁻¹ min⁻¹	–	Kcat [9]: 0.0217 s⁻¹; Km [9]: 0.7 µM; Ratio [10]: 1.4
Cc1ccc(NC(=O)c2cc(-c3ccncc3)nc3ccccc23)cc1	Active	0.54 µM	9.7 µM⁻¹ min⁻¹	–	Ratio [10]: 4.4
COc1ccc(NC(=O)c2cc(-c3ccccn3)nc3ccccc23)cc1	–	11.9 µM	2.2 µM⁻¹ min⁻¹	Active	–
Cc1ccc(NC(=O)c2cc(-c3ccccn3)nc3ccccc23)cc1	–	3.9 µM	2.9 µM⁻¹ min⁻¹	Active	–
COc1ccc(NC(=O)c2cc(-c3ccncn3)nc3ccccc23)cc1	Active	2.2 µM	3.3 µM⁻¹ min⁻¹	–	–
O=C(Nc1ccccc1)c1cc(-c2ccncn2)nc2ccccc12	Active	2.2 µM	3.2 µM⁻¹ min⁻¹	–	–
O=C(Nc1ccccc1)c1cc(-c2ccncc2)nc2ccccc12	Active	0.7 µM	12.1 µM⁻¹ min⁻¹	–	Ratio [10]: 1.3
O=C(Nc1ccccc1)c1cc(-c2ccccn2)nc2ccccc12	–	14.5 µM	1.3 µM⁻¹ min⁻¹	Active	–
